Measured values taken from paper PMC8596125, “Self‐Stabilized Supramolecular Assemblies Constructed from PEGylated Dendritic Peptide Conjugate for Augmenting Tumor Retention and Therapy” (Advanced Science, 2021).
Values joined by “and” are separate entries in the source; they are usually repeats but may differ in a detail not shown here. Equal entries are not always repeated.

Columns and labels:
In vivo pharmacokinetics = experiment: In vivo pharmacokinetics; parameters: species or system mouse; conditions: healthy BALB/c mice, single i.v. 5 mg Ppa kg-1, plasma fluorescence, two-compartment model, mean ± s.d., n = 7
Protocol: 1.3.13 In vivo pharmacokinetics
Healthy pathogen-free BALB/c mice (5-6 weeks, female) were used to determine the pharmacokinetics of SSAs (n = 7). The mice were intravenously injected with Ppa and SSAs (5 mg Ppa kg-1), respectively. Blood (20 μL) was collected at diﬀerent time […]
Plasma was diluted to 50-fold with DMSO for fluorescent measurements using a BioTek plate reader. The pharmacokinetic parameters were calculated using a two-compartment model by WinNonlin 5.2 software. […]

4T1 cells = experiment: Cytotoxicity, CCK-8 assay, 4T1; type: cell-based, mouse
Protocol: The CCK-8 assay was used to examine the photodynamic therapeutic effect of SSAs on cell viability against three cell lines. 4×103 4T1 cells per well were seeded in a 96-well plate, and then incubated overnight. The cells were treated with different concentrations of Ppa and SSAs at an equivalent Ppa dose. After 24 h incubation, the medium was replaced with fresh one, and the wells were irradiated using a 660 nm laser with 1 J cm−2. After 24 h, the spent media was replaced and the cell viability was assessed using the CCK-8 reagent. The absorbance at […] of each well was recorded on a microplate reader. Untreated cells were served as a control. Results were presented as the average cell viability by following the manufacturer’s instruction. IC50 values were calculated by using nonlinear regression in software Graphpad Prism7. The cytotoxicity of SSAs and Ppa with or without laser against A549 cell line was also measured through the same procedure.
The cytotoxicity of SSAs and PDP without laser irradiation was also measured by […]

4T1 breast tumors = experiment: In vivo photodynamic therapy, 4T1 breast tumor model; parameters: species or system mouse; conditions: n = 6; for TGI: BALB/c mice with 4T1 tumors
Protocol: and 14 d post-intravenous injection by a small-animal in vivo fluorescence imaging system (CRi Maestro EX, USA) with excitation at 450 nm and emission at 560 nm.
The mean fluorescence intensity (MFI) was quantitated by CRi Maestro EX 3.0.
Ex vivo fluorescent imaging
After BALB/c mice developed established tumors (100 mm3), Ppa and SSAs (5 mg Ppa kg-1) were intravenously injected into mice via their tail veins (n = 3). The mice were sacrificed at different time points (1 d, 3 d, 5 d, 7 d, 10 d and 14 d) after post-injection, and tumors were excised for ex vivo imaging and semi-quantitative distribution analysis by an in vivo imaging system (IVIS Spectrum In Vivo Imaging System, USA). These tumors were excised for preparing frozen sections. The fixed tumor samples were sectioned into 5 μm-thick slides and incubated with Alex Fluor 594 labeled anti-CD31 antibody (Abcam, UK) and DAPI (Dojindo, Japan). A confocal microscope was used to observe accumulation and retention of Ppa in the […]
1.3.15 In vivo photodynamic therapy
In the 4T1 breast tumor model, when the tumor volume reached about 50 mm3, the mice were divided into 5 groups (n = 6) and injected intravenously with saline, Ppa-1(one treatment), Ppa-2 (two treatments), SSAs-1 (one treatment) and SSAs-2 (two treatments) every four days. The dose per injection was 5 mg Ppa kg-1. After 3 d post-injection, mice were anesthetized with 2% (v/v) isofluorane and tumors were irradiated for 8 min (660 nm, 200 mW cm-2); The mice were monitored daily to identify any signs of toxicity, while the tumor volumetric size and the body weight were measured every 2 d. Tumor volumes were calculated using the following formula: tumor volume = length × width2 × 0.5. […]
For studies with an A549 human non-small cell lung tumor model, nude mice were randomly allocated into three groups (n= 5): saline (control), Ppa, and SSAs when the average tumor volume reached 50 mm3. […] The tumor growth was monitored and the tumor size was measured every 3 d. […]
Untreated cells were set as a control. […] Relative abundance of transcripts was calculated with kallisto. […]

[1] = test system: A549 human non-small cell lung tumor; experiment: In vivo photodynamic therapy, A549 xenograft model; parameters: species or system mouse; conditions: nude mice with A549 tumors, i.v. 5 mg Ppa kg-1 on day 1, 14, 21, 28, 660 nm 200 mW cm-2 8 min, n = 5
Protocol: and stained by the terminal deoxynucleotidyl transferase dUTP nick end labeling (TUNEL) and CD31 for histology studies.
For studies with an A549 human non-small cell lung tumor model, nude mice were randomly allocated into three groups (n= 5): saline (control), Ppa, and SSAs when the average tumor volume reached 50 mm3. Saline, Ppa, and SSAs (5 mg Ppa kg-1) were injected intravenously on day 1, 14, 21 and 28. At 3 d post injection, the tumors from groups Ppa, and SSAs were irradiated with a 660 nm laser (200 mW cm-2, 8 min). The tumor growth was monitored and the tumor size was measured every 3 d. The mice were sacrificed on day 61 after treatment.
1.3.16 RNA-seq and enriched signaling pathways analysis
4T1 cells (106/culture) were treated by SSAs and free Ppa with or without laser.
Untreated cells were set as a control. Total RNA was extracted (TRIzol Reagent, Thermo Fisher Scientific, USA) and rRNAs were removed by Ribo-zero™ rRNA Removal Kit (Epicentre, CA, USA). Relative abundance of transcripts was calculated with kallisto. The raw RNA-Seq count data were processed by DESeq R packages to obtain differentially expressed genes (DEGs).[4] […]
Enrichment analyses were performed according to the KEGG database. For gene set enrichment analysis (GSEA), all gene sets were analyzed against the curated gene sets […]

C=Cc1c(C)c2cc3nc(c4c5[nH]c(cc6nc(cc1[nH]2)C(C)=C6CC)c(C)c5C(=O)C4)[C@@H](CCC(=O)O)[C@@H]3C [Ppa, pyropheophorbide a]
AUC (area under the drug concentration) (In vivo pharmacokinetics): 2600 ± 110 ng·h/mL | MRT (mean residence time) (In vivo pharmacokinetics): 3.64 ± 1.02 h | t1/2 (half-life of the drug) (In vivo pharmacokinetics): 4.29 ± 0.47 h and 4.29 h | Cytotoxicity with laser irradiation (4T1 cells; 24 h incubation, 660 nm laser, CCK-8, n = 3): notable cytotoxicity | Concentration above which very cytotoxic without irradiation (4T1 cells; no light, CCK-8): higher than 1 µg mL^−1 | TGI (4T1 breast tumors; one treatment (group -1), i.v. 5 mg Ppa kg-1, 660 nm 200 mW cm-2 8 min 3 d post-injection): 11.6% | TGI (4T1 breast tumors; two treatments (group -2), i.v. 5 mg Ppa kg-1 per injection, 660 nm 200 mW cm-2 8 min 3 d post-injection): 17.1% | Antitumor effect on tumor growth (4T1 breast tumors; once and twice treatments, 4T1 model): no significant antitumor inhibitory effect | Tumor growth [1]: modest tumor growth suppression
